Results: patent US12527886B2, “Radiopharmaceuticals and composition for thrombus imaging” (THE ASAN FOUNDATION, priority 2020, dated 2026)

Legend:
[1] = Stability of Tc-99m labeled compound by radioTLC; format: physicochemical; conditions: for Eluent A / Eluent B: in % (unit assumed)
Method: (§1) After 2.0 mg of GP-104 was dissolved in 1.8 mL of water for injection and 0.2 mL of ethanol, the resulting solution was allowed to stand with a pH of about 5 at room temperature for 10 minutes when 20 μL of SnCl2 (15 mg/mL) and 2 mL of Tc-99m were added thereto, and the reaction was terminated by adjusting the pH to 7 using a NaOH solution. Stability up to 4 hours was confirmed by radioTLC under conditions of pH 5 and pH 7, respectively, and the results are summarized in the following Table 1. (TLC analysis conditions: iTLC was used, Eluent A: methyl ethyl ketone 100%, Eluent B: pyridine:acetic acid:purified water=3:5:15, and purity calculation: Eluent A−Eluent B)
as §1, with “ethanol, pH was adjusted to about 5 and” for “ethanol,”, “stand” for “stand with a pH of about 5”, “(15 mg/mL), 20 μL of cysteine (10” for “(15”, “Table 2.” for “Table 1.”
(§2) After 2.0 mg of GP-105 was dissolved in 1.8 mL of water for injection and 0.2 mL of ethanol, the pH was adjusted to about 5 and the resulting solution was allowed to stand at room temperature for 10 minutes when 20 μL of SnCl2 (15 mg/mL) and 2 mL of Tc-99m were added thereto, and the reaction was terminated by adjusting the pH to 7 using a NaOH solution. Stability until 4 hours under conditions of pH 5 and pH 7 was each confirmed by radioTLC. (TLC analysis conditions: iTLC was used, Eluent A: methyl ethyl ketone 100%, Eluent B: pyridine:acetic acid:purified water=3:5:15, and purity calculation: Eluent A−Eluent B)
as §2, with “ethanol,” for “ethanol, the”, “(15 mg/mL), 20 μL of cysteine (10” for “(15”

[2] = target: T1, glycoprotein IIb/IIIa (Rattus norvegicus, UniProt A0A8I6GGN2+Q8R2H2); test: Glycoprotein IIb/IIIa specific uptake in thrombotic disease model, gamma counter / microSPECT; format: in vivo, rats
T1 construct: a disease model in which a thrombus was formed with glycoprotein IIb/IIIa overexpressed; from tissue; host or cells: in vivo rat carotid artery thrombus (ferric chloride model)
T1 sequence (A0A8I6GGN2 32-1037): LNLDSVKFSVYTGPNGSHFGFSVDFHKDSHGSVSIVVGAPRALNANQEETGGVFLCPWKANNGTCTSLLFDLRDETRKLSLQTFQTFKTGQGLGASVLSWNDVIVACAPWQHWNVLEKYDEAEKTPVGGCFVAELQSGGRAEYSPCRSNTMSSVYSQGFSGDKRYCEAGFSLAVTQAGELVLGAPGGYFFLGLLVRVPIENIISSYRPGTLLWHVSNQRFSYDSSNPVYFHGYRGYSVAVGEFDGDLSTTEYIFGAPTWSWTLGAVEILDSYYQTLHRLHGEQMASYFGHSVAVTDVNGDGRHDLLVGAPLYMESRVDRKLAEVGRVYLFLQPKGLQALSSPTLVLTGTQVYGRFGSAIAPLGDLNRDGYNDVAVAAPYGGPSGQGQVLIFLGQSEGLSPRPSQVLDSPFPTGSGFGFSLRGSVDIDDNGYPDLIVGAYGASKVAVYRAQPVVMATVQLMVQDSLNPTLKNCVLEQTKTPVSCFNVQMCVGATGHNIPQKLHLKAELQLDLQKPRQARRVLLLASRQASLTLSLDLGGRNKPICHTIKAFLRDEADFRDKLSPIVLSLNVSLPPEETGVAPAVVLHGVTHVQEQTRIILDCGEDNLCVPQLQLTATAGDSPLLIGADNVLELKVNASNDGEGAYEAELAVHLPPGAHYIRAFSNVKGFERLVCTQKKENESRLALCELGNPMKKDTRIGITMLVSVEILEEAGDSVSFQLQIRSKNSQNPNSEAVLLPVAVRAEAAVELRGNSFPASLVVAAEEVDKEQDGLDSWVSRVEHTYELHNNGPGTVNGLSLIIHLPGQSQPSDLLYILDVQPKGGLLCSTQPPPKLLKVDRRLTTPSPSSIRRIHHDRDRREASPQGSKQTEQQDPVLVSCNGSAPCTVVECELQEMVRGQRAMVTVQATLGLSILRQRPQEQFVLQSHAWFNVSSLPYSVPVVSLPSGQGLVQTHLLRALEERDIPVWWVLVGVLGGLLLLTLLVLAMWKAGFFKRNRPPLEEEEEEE
T1 sequence (Q8R2H2 26-787): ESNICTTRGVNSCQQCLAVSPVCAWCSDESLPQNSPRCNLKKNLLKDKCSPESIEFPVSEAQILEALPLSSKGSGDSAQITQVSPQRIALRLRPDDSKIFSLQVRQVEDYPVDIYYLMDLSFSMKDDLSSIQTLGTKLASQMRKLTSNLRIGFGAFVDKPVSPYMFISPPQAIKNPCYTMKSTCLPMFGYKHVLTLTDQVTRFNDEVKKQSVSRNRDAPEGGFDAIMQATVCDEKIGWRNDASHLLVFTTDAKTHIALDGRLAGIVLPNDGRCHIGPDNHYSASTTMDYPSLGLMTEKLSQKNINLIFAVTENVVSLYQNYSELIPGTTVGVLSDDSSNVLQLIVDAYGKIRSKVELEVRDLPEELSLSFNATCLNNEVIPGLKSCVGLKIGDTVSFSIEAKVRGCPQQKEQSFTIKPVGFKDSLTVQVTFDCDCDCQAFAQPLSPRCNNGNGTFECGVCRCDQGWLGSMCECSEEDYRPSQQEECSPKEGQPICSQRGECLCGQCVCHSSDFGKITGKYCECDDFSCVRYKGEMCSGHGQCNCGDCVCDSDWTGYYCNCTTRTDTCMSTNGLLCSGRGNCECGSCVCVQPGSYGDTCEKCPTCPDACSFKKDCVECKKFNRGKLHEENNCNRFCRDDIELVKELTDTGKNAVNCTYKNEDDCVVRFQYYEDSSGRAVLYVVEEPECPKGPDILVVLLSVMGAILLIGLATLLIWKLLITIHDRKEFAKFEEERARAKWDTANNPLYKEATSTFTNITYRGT
From the text: After 6-week-old rats were anesthetized to make a thrombotic disease model, the carotid artery was secured by opening the skin on the carotid artery side. Then, a filter paper soaked with a 5% ferric chloride solution was exposed on the artery, and then washed three times or more with physiological saline, and the incised skin was sutured again to make a model. […]

[3] = Ex 4-1, no cysteine, pH 5, 0 hour
[4] = Ex 4-1, no cysteine, pH 5, 0.5 hours
[5] = Ex 4-1, no cysteine, pH 5, 1.0 hour
[6] = Ex 4-1, no cysteine, pH 5, 1.5 hours
[7] = Ex 4-1, no cysteine, pH 5, 2.0 hours
[8] = Ex 4-1, no cysteine, pH 5, 3.0 hours
[9] = Ex 4-1, no cysteine, pH 5, 4.0 hours
[10] = Ex 4-1, no cysteine, pH 7, 0 hour
[11] = Ex 4-1, no cysteine, pH 7, 0.5 hours
[12] = Ex 4-1, no cysteine, pH 7, 1.0 hour
[13] = Ex 4-1, no cysteine, pH 7, 1.5 hours
[14] = Ex 4-1, no cysteine, pH 7, 2.0 hours
[15] = Ex 4-1, no cysteine, pH 7, 3.0 hours
[16] = Ex 4-1, no cysteine, pH 7, 4.0 hours
[17] = Ex 4-2, cysteine, pH 5, 0.5 hours
[18] = Ex 4-2, cysteine, pH 5, 1.0 hour
[19] = Ex 4-2, cysteine, pH 5, 1.5 hours
[20] = Ex 4-2, cysteine, pH 5, 2.0 hours
[21] = Ex 4-2, cysteine, pH 5, 3.0 hours
[22] = Ex 4-2, cysteine, pH 5, 4.0 hours
[23] = Ex 4-2, cysteine, pH 7, 0.5 hours
[24] = Ex 4-2, cysteine, pH 7, 1.0 hour
[25] = Ex 4-2, cysteine, pH 7, 1.5 hours
[26] = Ex 4-2, cysteine, pH 7, 2.0 hours
[27] = Ex 4-2, cysteine, pH 7, 3.0 hours
[28] = Ex 4-2, cysteine, pH 7, 4.0 hours
[29] = gamma counter, sacrificed at the 2nd hour

O=C(O)C[C@H](NC(=O)[C@@H]1CCCN(C(=O)CCC2CCNCC2)C1)c1cncc(OCCNC(=O)CN2CC(=O)[O][99Tc-]3([O]C(=O)C2)[O]C(=O)CN(CC(=O)NCCOc2cncc([C@H](CC(=O)O)NC(=O)[C@@H]4CCCN(C(=O)CCC5CCNCC5)C4)c2)CC(=O)[O]3)c1 [[Tc-99m]GP-105]
Purity [1, 3]: 82.93% | Eluent A [1, 3]: 100 | Eluent B [1, 3]: 17.07 | Purity [1, 4]: 72.53% | Eluent A [1, 4]: 95.67 | Eluent B [1, 4]: 23.14 | Purity [1, 5]: 73.13% | Eluent A [1, 5]: 97.07 | Eluent B [1, 5]: 23.94 | Purity [1, 6]: 71.23% | Eluent A [1, 6]: 94.54 | Eluent B [1, 6]: 23.31 | Purity [1, 7]: 60.81% | Eluent A [1, 7]: 93.25 | Eluent B [1, 7]: 32.44 | Purity [1, 8]: 60.99% | Eluent A [1, 8]: 80.67 | Eluent B [1, 8]: 19.68 | Purity [1, 9]: 57.11% | Eluent A [1, 9]: 82.64 | Eluent B [1, 9]: 25.53 | Purity [1, 10]: 82.93% | Eluent A [1, 10]: 100 | Eluent B [1, 10]: 17.07 | Purity [1, 11]: 65.63% | Eluent A [1, 11]: 90.76 | Eluent B [1, 11]: 25.13 | Purity [1, 12]: 60.37% | Eluent A [1, 12]: 85.38 | Eluent B [1, 12]: 25.01 | Purity [1, 13]: 58.73% | Eluent A [1, 13]: 95.97 | Eluent B [1, 13]: 37.24 | Purity [1, 14]: 54.3% | Eluent A [1, 14]: 96.17 | Eluent B [1, 14]: 41.87 | Purity [1, 15]: 54.12% | Eluent A [1, 15]: 94 | Eluent B [1, 15]: 39.88 | Purity [1, 16]: 40.17% | Eluent A [1, 16]: 85.5 | Eluent B [1, 16]: 45.33 | Purity ([1]; Ex 4-2, cysteine, pH 5, 0 hour): 82.93% | Eluent A ([1]; Ex 4-2, cysteine, pH 5, 0 hour): 100 | Eluent B ([1]; Ex 4-2, cysteine, pH 5, 0 hour): 17.07 | Purity [1, 17]: 92.37% | Eluent A [1, 17]: 100 | Eluent B [1, 17]: 7.63 | Purity [1, 18]: 76.25% | Eluent A [1, 18]: 89.07 | Eluent B [1, 18]: 12.82 | Purity [1, 19]: 87.74% | Eluent A [1, 19]: 100 | Eluent B [1, 19]: 12.26 | Purity [1, 20]: 38.64% | Eluent A [1, 20]: 57.3 | Eluent B [1, 20]: 18.66 | Purity [1, 21]: 77.6% | Eluent A [1, 21]: 97.4 | Eluent B [1, 21]: 19.8 | Purity [1, 22]: 76.51% | Eluent A [1, 22]: 98.31 | Eluent B [1, 22]: 21.8 | Purity ([1]; Ex 4-2, cysteine, pH 7, 0 hour): 90.38% | Eluent A ([1]; Ex 4-2, cysteine, pH 7, 0 hour): 100 | Eluent B ([1]; Ex 4-2, cysteine, pH 7, 0 hour): 9.62 | Purity [1, 23]: 92.28% | Eluent A [1, 23]: 98.65 | Eluent B [1, 23]: 6.37 | Purity [1, 24]: 85.19% | Eluent A [1, 24]: 98.4 | Eluent B [1, 24]: 13.21 | Purity [1, 25]: 91.63% | Eluent A [1, 25]: 97.22 | Eluent B [1, 25]: 5.59 | Purity [1, 26]: 89.39% | Eluent A [1, 26]: 95.62 | Eluent B [1, 26]: 6.23 | Purity [1, 27]: 90.09% | Eluent A [1, 27]: 100 | Eluent B [1, 27]: 9.91 | Purity [1, 28]: 96.79% | Eluent A [1, 28]: 100 | Eluent B [1, 28]: 3.21 | Purity ([1]; addition of cysteine, pH of 5 (Table 8)): ≥ 70% | Purity ([1]; addition of cysteine, pH of 7 (Table 8)): ≥ 90% | maximum purity ([1]; no cysteine, pH 5 and pH 7 (text to Table 7)): 82.93% | specific uptake in the disease model [2]: high specific uptake | target to non target ratio ([2]; gamma counter, 2nd hour): 2.7 | counts per minute (CPM)/g value, left artery [2, 29]: 23.5 CPM/g | counts per minute (CPM)/g value, right artery [2, 29]: 63.9 CPM/g | background radioactivity excretion ([2]; microSPECT until 4 hours): quick background radioactivity excretion effect
